In patent publication US7572765B2, “Conformationally constrained parathyroid hormone (PTH) analogs” (The General Hospital Corporation, priority 2001, dated 2009):
Entries after “also recorded” stand apart in the source; their conditions may differ. Square brackets hold non-standard residues; d marks the D form. Peptide text beside a SMILES is read from it. hArg = N=C(N)NCCCC[C@H](N)C(=O)O; Aib = CC(C)(N)C(=O)O

Tests used:
[1] = test system: embryonic mouse metatarsals; experiment: Inhibition of chondrocyte differentiation in embryonic mouse metatarsals (explant assay); assay type: cell-based; settings: for effect on mineralization / chondrocyte differentiation: E15.5 mouse metatarsals, 48 h treatment, PTH(1-34) 0.1 μM, [Aib^1,3,M]PTH(1-14) 1 μM, native PTH(1-14) 2 μM; for expression of the collagen X gene (mRNA in situ hybridization): explanted metatarsals, data not shown
Protocol: Inhibition of Chondrocyte Differentiation in Embryonic Mouse Metatarsals. Metatarsals from embryonic day (E) 15.5 mouse embryos were excised and cultured in a 37° C. humidified incubator (5% CO2) in serum -free αXMEM media in 24 well plates. Sixteen hours later, a PTH analog or vehicle was added, and the samples were incubated for an additional 48 h in 37° C. with peptide or vehicle added again at the 24 h time point. At the end of the 64 h incubation period, the samples were fixed with 10% formalin/phosphate-buffered saline, then directly visualized on a dissecting microscope using white light. Sections were processed for in-situ hybridization analysis using ^35S-labeled riboprobes specific for collagen type X mRNA, a developmental marker gene expressed only in hypertrophic chrondrocytes of the growth plate.
Whether or not [Aib^1,3,M]PTH(1-14) activity could be detected in a more intact bone system was studied in an explant assay. An explant assay utilized cartilaginous metatarsal rudiments isolated from E15.5mouse embryos and subsequently cultured in multi-well plates containing serum-free media. A PTH peptide analog or vehicle control, was added to the culture 16 h after explantion, then again at 24 h. The incubation was terminated 24 h later for a total of 48 h of treatment over a 64 h period. In the absence of PTH, chondrocyte differentation occurred, such that by the end of the experiment, dense mineralization was apparent at the bone's mid-section (FIG. 5A). […] These inhibitory effects were consistent with the known capacity of PTHRP to retard chondrocyte differentiation in the growth plate cartilage of developing long bones (Pellegrini, M., et al., Biochemistry 37:12737-12743 (1998)).

[2] = target: T1, wild-type human P1R (hP1R-WT) (Homo sapiens, UniProt Q03431); experiment: Stimulation of inositol phosphate production (PLC) in COS-7 cells expressing hP1R-WT; assay type: cell-based; settings: for PLC EMAX(obs.) / EC50: hP1R-WT; for EC50: dash = no PLC response observed
T1 construct: expressed in transfected cells; host or cells: COS-7 (transient, FuGENE 6)
T1 sequence (Q03431 27-593): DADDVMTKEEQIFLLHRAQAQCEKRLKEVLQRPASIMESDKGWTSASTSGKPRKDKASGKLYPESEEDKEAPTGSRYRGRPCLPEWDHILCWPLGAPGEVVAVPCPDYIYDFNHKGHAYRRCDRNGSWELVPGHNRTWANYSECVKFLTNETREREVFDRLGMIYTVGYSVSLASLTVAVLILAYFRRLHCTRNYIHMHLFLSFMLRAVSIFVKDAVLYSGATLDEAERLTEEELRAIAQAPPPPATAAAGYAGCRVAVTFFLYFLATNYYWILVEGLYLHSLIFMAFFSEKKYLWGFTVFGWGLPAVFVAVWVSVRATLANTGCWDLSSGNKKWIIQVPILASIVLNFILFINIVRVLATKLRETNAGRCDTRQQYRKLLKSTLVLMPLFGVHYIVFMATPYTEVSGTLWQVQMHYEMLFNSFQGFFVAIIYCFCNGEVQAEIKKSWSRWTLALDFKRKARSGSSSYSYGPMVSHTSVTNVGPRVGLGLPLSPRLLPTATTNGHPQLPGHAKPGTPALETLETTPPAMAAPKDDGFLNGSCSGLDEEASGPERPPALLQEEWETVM
Protocol: Cell Culture. The cell line HKRK-B28 (Takasu, H., et al., J. Bone Miner. Res. 14:11-20 (1999)) was derived from the porcine kidney cell line, LLC-PK1 by stable transfection with plasmid DNA encoding the human P1R and expresses ˜280,000 receptors per cell. These cells, as well as COS-7 cells and SaOS-2-B10 cells, were cultured at […] in T-75 flasks ([…]) in Dulbecco's modified Eagle's medium (DMEM) supplemented with fetal bovine serum (10%), penicillin G (20 units/ml), streptomycin sulfate (20 μg/ml) and amphotericin B (0.05 μg/ml) in a humidified atmosphere containing 5% CO2. Stock solutions of EGTA/trypsin and antibiotics were from GIBCO; fetal bovine serum was from Hyclone Laboratories (Logan, Utah). COS-7 cells sub-cultured in 24-well plates were transfected with plasmid DNA (200 ng per well) encoding the wild-type human P1R or truncated human P1R deleted for residues (24-181) (Shimizu, M., et al., J. Biol. Chem. 275:21836-21843 (2000)) that was purified by cesium chloride/ethidium bromide density gradient centrifugation, and FuGENE 6 transfection reagent (Roche Indianapolis Ind.) according to the manufacturer's recommended procedure. All cells, in 24-well plates, were treated with fresh media and shifted to 33° C. for 12 to 24 h prior to assay.
Stimulation of Inositol Phosphate Production. COS-7 cells transfected as above with P1R-WT were treated with serum-free, inositol-free DMEM containing 0.1% bovine serum albumin and [^3H]myo-inositol (NEN, Boston, Mass.) (2 μCi/mL) for 16 h prior to assay. At the time of the assay, the cells were rinsed with binding buffer containing LiCl (30 mM) and treated with the same buffer with or without a PTH analog. The cells were then incubated at 37° C. for 40 min, after which the buffer was removed and replaced by 0.5 mL of ice cold 5% trichloroacetic acid solution. After 3 h on ice, the lysate was collected and extracted twice with ethyl ether. The lysate was then applied to an ion exchange column (0.5 mL resin bed) and the total inositol phosphates were eluted as described previously (Berridge, M. J., et al., Biochem. J. 212:473-482 (1983)), and counted in liquid scintillation cocktail.

| Molecule | effect on mineralization / chondrocyte differentiation [1] | expression of the collagen X gene (mRNA in situ hybridization) [1] | increase in IP formation ([2]; P1R-WT) | PLC EMAX(obs.) [2] | EC50 [2] | PLC potency, fold more potent than [M]PTH(1-14) ([2]; P1R-WT) |
| --- | --- | --- | --- | --- | --- | --- |
| CCCC[C@H](NC(=O)[C@H](CCCNC(=N)N)NC(=O)[C@H](CCC(=O)O)NC(=O)[C@@H](NC(=O)[C@H](CO)NC(=O)[C@H](C)NC(=O)[C@H](CC(C)C)NC(=O)[C@H](Cc1c[nH]cn1)NC(=O)[C@H](CCCCN)NC(=O)CNC(=O)[C@H](CC(C)C)NC(=O)[C@H](CC(N)=O)NC(=O)[C@H](Cc1c[nH]cn1)NC(=O)[C@H](CCCC)NC(=O)[C@H](CC(C)C)NC(=O)[C@H](CCC(N)=O)NC(=O)[C@@H](NC(=O)[C@H](CCC(=O)O)NC(=O)[C@H](CO)NC(=O)[C@@H](NC(=O)[C@H](C)N)C(C)C)[C@@H](C)CC)C(C)C)C(=O)N[C@@H](CCC(N)=O)C(=O)N[C@@H](Cc1c[nH]c2ccccc12)C(=O)N[C@@H](CC(C)C)C(=O)N[C@@H](CCCNC(=N)N)C(=O)N[C@@H](CCCCN)C(=O)N[C@@H](CCCCN)C(=O)N[C@@H](CC(C)C)C(=O)N[C@@H](CCC(N)=O)C(=O)N[C@@H](CC(=O)O)C(=O)N[C@H](C(=O)N[C@@H](Cc1c[nH]cn1)C(=O)N[C@@H](CC(N)=O)C(=O)N[C@@H](Cc1ccc(O)cc1)C(N)=O)C(C)C [PTH(1-34), [Nle^8,21, Tyr^34]PTH(1-34)amide, reference compound] | no mineralization was observed; also recorded: inhibited mineralization | inhibited expression of the collagen X gene | 4 fold | 4.2 ± 0.6 foldxbasal | 17 ± 2 nM |  |
| CC[C@H](C)[C@H](NC(=O)[C@H](CCC(=O)O)NC(=O)C(C)(C)NC(=O)[C@@H](NC(=O)C(C)(C)N)C(C)C)C(=O)N[C@@H](CCC(N)=O)C(=O)N[C@@H](CC(C)C)C(=O)N[C@@H](CCSC)C(=O)N[C@@H](Cc1c[nH]cn1)C(=O)N[C@@H](CCC(N)=O)C(=O)N[C@@H](CCCCNC(=N)N)C(=O)N[C@@H](C)C(=O)N[C@@H](CCCCN)C(=O)N[C@@H](Cc1c[nH]c2ccccc12)C(N)=O [[Aib^1,3,M]PTH(1-14), AibValAibGluIleGlnLeuMetHisGlnHarAlaLysTrp] (H-[Aib]V[Aib]EIQLMHQ[hArg]AKW-NH2) | no mineralization was observed; also recorded: inhibited mineralization | inhibited expression of the collagen X gene | 4 fold | 4.3 ± 0.6 foldxbasal | 71 ± 9 nM | 66 fold |
| CC[C@H](C)[C@H](NC(=O)[C@H](CCC(=O)O)NC(=O)[C@H](C)NC(=O)[C@@H](NC(=O)[C@H](C)N)C(C)C)C(=O)N[C@@H](CCC(N)=O)C(=O)N[C@@H](CC(C)C)C(=O)N[C@@H](CCSC)C(=O)N[C@@H](Cc1c[nH]cn1)C(=O)N[C@@H](CCC(N)=O)C(=O)N[C@@H](CCCCNC(=N)N)C(=O)N[C@@H](C)C(=O)N[C@@H](CCCCN)C(=O)N[C@@H](Cc1c[nH]c2ccccc12)C(N)=O [[M]PTH(1-14), [Ala^3,12,Gln^10,Har^11,Trp^14]PTH(1-14)amide, reference compound] (H-AVAEIQLMHQ[hArg]AKW-NH2) |  |  | 4 fold | 3.9 ± 0.5 foldxbasal |  |  |
| H-AVSEIQLMHNLGKH-NH2 [PTH(1-14), reference compound] | no effect could be detected; also recorded: mineralization can be detected |  |  |  |  |  |
